Source: patent US6479653B1, “Compositions and method for regulation of transcription” (ARIAD Gene Therapeutics, Inc., priority 1997, dated 2002)
Entries after “also recorded” stand apart in the source; their conditions may differ.

What was measured:
reporter gene = assay: Transcription assay of p65 activation domain mutants; format: cell-based; conditions: for potency of p65 activation domain to induce the reporter gene, relative to wild type: mutated p65 activation domain
Description: Thus, in one embodiment of this invention, mutations are introduced into the activation domain by standard techniques known in the art, such as site-directed PCR based mutagenesis. In this embodiment, one to five, in some cases one to three, alterations in peptide sequence can be introduced into the DNA coding for the activation domain. Each of these mutations either alone or in combination with one or more other mutations may be readily assayed for its ability to induce the transcription of either transiently transfected or stably integrated target reporter gene constructs. For instance, a construct encoding a fusion protein containing multiple copies of the modified sequence and a DNA binding domain can be introduced into cells and the activity of the encoded fusion protein measured in transcription assays (with a responsive reporter gene construct) and compared to analogous fusion proteins containing wild-type activation domain sequence or a different mutation of interest.
The foregoing is illustrated in the case of the p65 transcription activation domains. Constructs are prepared encoding fusion proteins containing one or more p65 transcription activation domains and a DNA binding domain. The p65 domains may be wild-type (as a control) or may contain any of a variety of alterations in peptide sequence. These mutations can generally be introduced into a variety of p65-derived transcription activation domains. For example, M1 mutations can be introduced into plasmids carrying p65 activation domain coding regions between amino acids 533 and 550, or 361 and 550, or 280 and 550.
Exemplary mutations for p65 transcription activation domains include those intended to increase the potency of the p65 activation domain (including the M1, M2, M6, M7 and M8 mutations) and those intended to decrease the potency (generally slightly) of the activation domain. […] Mutations of the M4 and M5 class change the conserved serine and proline residues between amino-acids 361 and 450. […] In GST pull down assays, the region of the M4 and M5 mutations interacts with TFIIA. […] Thus, mutations for the practitioner to bear in mind include, but are not limited to, the following: […]

[1] = tested on: GAL4 responsive reporter gene; assay: Rapamycin-induced expression of stably integrated GAL4-responsive SEAP reporter in transfected HT1080 B cells; format: cell-based

377-GALALGAGGQVL(SEQ ID NO:11) [M4]
expression of target genes when fused to other acidic type activation domains (reporter gene): synergistically | potency of p65 activation domain to induce the reporter gene, relative to wild type (reporter gene): very small effect

401-GALAQAGAGVG (SEQ ID NO:13) [M5]
expression of target genes when fused to other acidic type activation domains (reporter gene): synergistically | potency of p65 activation domain to induce the reporter gene, relative to wild type (reporter gene): very small effect

529-GDEDASSIADMDASALLSQI (SEQ ID NO:9) [F 533 and F 541 to alanine residues]
potency of p65 activation domain to induce the reporter gene, relative to wild type (reporter gene): half of wild type level

CO[C@H]1C[C@@H]2CC[C@@H](C)[C@@](O)(O2)C(=O)C(=O)N2CCCC[C@H]2C(=O)O[C@H]([C@H](C)C[C@@H]2CC[C@@H](O)[C@H](OC)C2)CC(=O)[C@H](C)/C=C(\C)[C@@H](O)[C@@H](OC)C(=O)[C@H](C)C[C@H](C)/C=C/C=C/C=C/1C [rapamycin, reference compound]
rapamycin concentration giving peak levels of reporter gene expression ([1]; GF4 with RS, RMTS or RMTSV): 10 nM

B1: RMTSV: VP16 activation domain fused to RMTS (FRB-minimal lac repressor tetramerization domain-p65) (protein)
chain: EMWHEGLEEASRLYFGERNVKGMFEVLEPLHAMMERGPQTLKETSFNQAYGRDLMEAQEWCRKYMKSGNVKDLTQAWDLYYHVFRRISKVKRKTTLAPNTQTASPRALADSLMQLARQVSRLESGQDEFPTMVFPSGQISQASALAPAPPQVLPQAPAPAPAPAMVSALAQAPAPVPVLAPGPPQAVAPPAPKPTQAGEGTLSEALLQLQFDDEDLGALLGNSTDPAVFTDLASVDNSEFQQLLNQGIPVAPHTTEPMLMEYPEAITRLVTGAQRPPDPAPAPLGAPGLPNGLLSGDEDFSSIADMDFSALLSQISSLGDELHLDGEDVAMAHADALDDFDLDMLGDGDSPGPGFTPHDSAPYGALDMADFEFEQMFTDALGIDEYGG
modifications: left off: small tags and cut ends
reporter gene expression at 1 nM rapamycin ([1]; GF4 DNA binding receptor, 1 nM rapamycin in the medium): induced the reporter gene expression robustly | reporter gene expression at the lowest level of activation domains expressed ([1]; fixed amount of GF4, 10 nM rapamycin): robust activation of reporter gene expression; also recorded: exceeded the level stimulated by the highest amount of RS fusion proteins
